This passage reports EC50 results from patent publication US9156796B2, “Benzoimidazole-carboxylic acid amide derivatives as APJ receptor modulators” (SANOFI, priority 2013, dated 2015).

The structures appear in SMILES notation.

One experiment has as its target T1, human apelin receptor (Homo sapiens, UniProt P35414).
T1 construct: expressed in transfected cells
T1 sequence (P35414 1-380): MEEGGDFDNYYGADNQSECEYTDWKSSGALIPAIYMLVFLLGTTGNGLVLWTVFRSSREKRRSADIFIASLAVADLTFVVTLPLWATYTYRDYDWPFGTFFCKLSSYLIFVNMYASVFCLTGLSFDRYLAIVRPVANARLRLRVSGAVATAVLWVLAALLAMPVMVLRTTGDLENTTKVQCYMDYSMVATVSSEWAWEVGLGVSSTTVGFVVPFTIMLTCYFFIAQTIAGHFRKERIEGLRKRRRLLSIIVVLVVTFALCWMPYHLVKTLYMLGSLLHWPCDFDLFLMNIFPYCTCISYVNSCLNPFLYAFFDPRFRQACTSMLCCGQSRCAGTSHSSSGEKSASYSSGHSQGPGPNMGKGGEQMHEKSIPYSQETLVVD
The experiment in a line: Determination of agonism on the human apelin receptor by a calcium fluorescence assay (FLIPR). Format: cell-based. To be noted: EC50 (APJ agonism), HEK293 cells stably transfected with human apelin receptor and Giaq protein, Fluo-4 calcium fluorescence. In short, it runs like this:
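HEK293 cells stably co-expressing human apelin receptor and promiscuous Giaq, loaded 1 h at 37 °C with Fluo-4 (4 μM) in probenecid-containing Hepes buffer, pH 7.4. Compounds, at least 7 concentrations in triplicate, added in FLIPR Tetra; peak calcium fluorescence normalized to 1 μM apelin-13 as 100% to derive EC50.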
On to `CCC(CC)n1c(Cc2cccs2)nc2cc(C(=O)N[C@H](CO)C(C)(C)C)ccc21` [Example 192, 1-(1-Ethyl-propyl)-2-thiophen-2-ylmethyl-1H-benzoimidazole-5-carboxylic acid ((S)-1-hydroxymethyl-2,2-dimethyl-propyl)-amide], for which the EC50 was determined as 14000 nM.

Still in this experiment, the particulars now being: HEK293 cells stably transfected with human apelin receptor and Giaq protein, Fluo-4 calcium fluorescence, read-out: EC50 (APJ agonism).
As to `CCCC(NC(=O)c1ccc2c(c1)nc(Cc1cccs1)n2C(CC)CC)c1ccccn1` (stereo not shown) [Example 477, 1-(1-Ethyl-propyl)-2-thiophen-2-ylmethyl-1H-benzoimidazole-5-carboxylic acid (1-pyridin-2-yl-butyl)-amide], the EC50 worked out at 2720 nM.

`CCC(CC)n1c(Cc2cccs2)nc2cc(C(=O)N[C@H](Cc3nnn[nH]3)CC(C)C)ccc21` [Example 472, 1-(1-Ethyl-propyl)-2-thiophen-2-ylmethyl-1H-benzoimidazole-5-carboxylic acid [(S)-3-methyl-1-(1H-tetrazol-5-ylmethyl)-butyl]-amide]: the EC50 is 38 nM.

Turning to `CCC(CC)n1c(Cc2cccs2)nc2cc(C(=O)N[C@@H](CC(C)C)[C@H](O)C(=O)O)ccc21` [Example 68, (2S,3S)-3-{[1-(1-Ethyl-propyl)-2-thiophen-2-ylmethyl-1H-benzoimidazole-5-carbonyl]-amino}-2-hydroxy-5-methyl-hexanoic acid], the EC50 was found to be 18 nM.

In the case of `CC(C)C[C@H](NC(=O)c1ccc2c(c1)nc(Cc1cccs1)n2C1CCCCC1C)C(=O)O` (single isomer, unassigned) [Example 415], the EC50 came to 532 nM.

For the compound `C[C@@H]1CCCC[C@H]1n1c(Cc2cccs2)nc2cc(C(=O)NC(CC3CCCCCC3)C(=O)O)ccc21` (single isomer, unassigned) [Example 451], the EC50 turned out to be 1230 nM.

As for `CCC(CC)n1c(Cc2cccs2)nc2cc(C(=O)N[C@@H](CC(C)C)C(=O)NC3CCN(c4ncccn4)CC3)ccc21` [Example 352, 1-(1-Ethyl-propyl)-2-thiophen-2-ylmethyl-1H-benzoimidazole-5-carboxylic acid [(S)-3-methyl-1-(1-pyrimidin-2-yl-piperidin-4-ylcarbamoyl)-butyl]-amide], the EC50 came out at 2980 nM.

Turning to `CCC(CC)n1c(Cc2cccs2)nc2cc(C(=O)NC(CC(N)=O)CC(C)C)ccc21` (stereo not shown) [Example 174, 1-(1-Ethyl-propyl)-2-thiophen-2-ylmethyl-1H-benzoimidazole-5-carboxylic acid (1-carbamoylmethyl-3-methyl-butyl)-amide], the EC50 worked out at 301 nM.

Turning to `CCC(CC)n1c(Cc2cccs2)nc2cc(C(=O)N[C@@H](CC(C)C)C(=O)NC3CCN(Cc4ccccc4)CC3)ccc21` [Example 313, 1-(1-Ethyl-propyl)-2-thiophen-2-ylmethyl-1H-benzoimidazole-5-carboxylic acid [(S)-1-(1-benzyl-piperidin-4-ylcarbamoyl)-3-methyl-butyl]-amide], the concentration for a half-maximal effect (EC50) turned out to be 1890 nM.

As for `CCC(CC)n1c(Cc2cccs2)nc2cc(C(=O)N[C@@H](CC(C)C)C(=O)N(C)Cc3ccccc3)ccc21` [Example 263, 1-(1-Ethyl-propyl)-2-thiophen-2-ylmethyl-1H-benzoimidazole-5-carboxylic acid [(S)-1-(benzyl-methyl-carbamoyl)-3-methyl-butyl]-amide], the EC50 turned out to be 4300 nM.

As to `CCCC[C@H](NC(=O)c1ccc2c(c1)nc(Cc1cccs1)n2C(CC)CC)C(=O)O` [Example 18, (S)-2-{[1-(1-Ethyl-propyl)-2-thiophen-2-ylmethyl-1H-benzoimidazole-5-carbonyl]-amino}-hexanoic acid], the EC50 turned out to be 150 nM.

On to `CCC(CC)n1c(Cc2cccs2)nc2cc(C(=O)N[C@@H](CC(C)C)C(=O)NCCC#N)ccc21` [Example 404, 1-(1-Ethyl-propyl)-2-thiophen-2-ylmethyl-1H-benzoimidazole-5-carboxylic acid [(S)-1-(2-cyano-ethylcarbamoyl)-3-methyl-butyl]-amide], for which the EC50 was 788 nM.

Regarding `CCC(CC)NC(=O)[C@H](CC(C)C)NC(=O)c1ccc2c(c1)nc(Cc1cccs1)n2C(CC)CC` [Example 226, 1-(1-Ethyl-propyl)-2-thiophen-2-ylmethyl-1H-benzoimidazole-5-carboxylic acid [(S)-1-(1-ethyl-propylcarbamoyl)-3-methyl-butyl]-amide], the EC50 is 4870 nM.

With `CCC(CC)n1c(Cc2cccs2)nc2cc(C(=O)N[C@@H](CC(C)C)C(=O)NC3C[C@H]4CC[C@@H](C3)N4C)ccc21` (stereo partly drawn) [Example 273, 1-(1-Ethyl-propyl)-2-thiophen-2-ylmethyl-1H-benzoimidazole-5-carboxylic acid [(S)-3-methyl-1-((1R,5S)-8-methyl-8-aza-bicyclo[3.2.1]oct-3-ylcarbamoyl)-butyl]-amide], the EC50 was determined as 212 nM.

Take `CCC(CC)n1c(Cc2cccs2)nc2cc(C(=O)NC3(CC(=O)O)CCCCC3)ccc21` [Example 64, (1-{[1-(1-Ethyl-propyl)-2-thiophen-2-ylmethyl-1H-benzoimidazole-5-carbonyl]-amino}-cyclohexyl)-acetic acid]: the EC50 came out at 176 nM.

For `CCC(C)n1c(Cc2ccsc2)nc2cc(C(=O)N[C@@H](CC(C)C)C(=O)O)ccc21` (stereo partly drawn) [Example 142, (S)-2-[(1-sec-Butyl-2-thiophen-3-ylmethyl-1H-benzoimidazole-5-carbonyl)-amino]-4-methyl-pentanoic acid], the EC50 came to 12000 nM.

Take `CCC(CC)n1c(CC2CCCO2)nc2cc(C(=O)N[C@H](CC(=O)O)CC(C)C)ccc21` (stereo partly drawn) [Example 160, (S)-3-{[1-(1-Ethyl-propyl)-2-(tetrahydro-furan-2-ylmethyl)-1H-benzoimidazole-5-carbonyl]-amino}-5-methyl-hexanoic acid]: the EC50 came to 820 nM.

Regarding `CCC(CC)n1c(Cc2cccs2)nc2cc(C(=O)N[C@@H](CC(C)C)C(=O)N3CC4CC3CN4CC(C)C)ccc21` (stereo partly drawn) [Example 348, 1-(1-Ethyl-propyl)-2-thiophen-2-ylmethyl-1H-benzoimidazole-5-carboxylic acid [(S)-1-(5-isobutyl-2,5-diaza-bicyclo[2.2.1]heptane-2-carbonyl)-3-methyl-butyl]-amide], the EC50 was 2660 nM.

Take `CCC(CC)n1c(Cc2cccs2)nc2cc(C(=O)N[C@H](c3nnc(COC)[nH]3)C(C)C)ccc21` [Example 482, 1-(1-Ethyl-propyl)-2-thiophen-2-ylmethyl-1H-benzoimidazole-5-carboxylic acid [(S)-1-(5-methoxymethyl-2H-[1,2,4]triazol-3-yl)-2-methyl-propyl]-amide]: the EC50 was found to be 15700 nM.

As for `CCC(CC)n1c(Cc2cccs2)nc2cc(C(=O)N[C@@H](CC(C)C)C(=O)NC3CCN(CCc4ccc(OC)cc4)CC3)ccc21` [Example 328, 1-(1-Ethyl-propyl)-2-thiophen-2-ylmethyl-1H-benzoimidazole-5-carboxylic acid ((S)-1-{1-[2-(4-methoxy-phenyl)-ethyl]-piperidin-4-ylcarbamoyl}-3-methyl-butyl)-amide], the half-maximal effective concentration (EC50) is 1270 nM.

As for `CCC(CC)n1c(Cc2cccs2)nc2cc(C(=O)N[C@@H](CO)C3CCCCC3)ccc21` [Example 203, 1-(1-Ethyl-propyl)-2-thiophen-2-ylmethyl-1H-benzoimidazole-5-carboxylic acid ((R)-1-cyclohexyl-2-hydroxy-ethyl)-amide], the EC50 amounted to 24700 nM.

As to `CC(C)C[C@@H](CC(=O)O)NC(=O)c1ccc2c(c1)nc(Cc1cccs1)n2CC1CCCCC1` [Example 97, (S)-3-[(1-Cyclohexylmethyl-2-thiophen-2-ylmethyl-1H-benzoimidazole-5-carbonyl)-amino]-5-methyl-hexanoic acid], the EC50 stood at 39000 nM.

Regarding `CCC(CC)n1c(Cc2cccs2)nc2cc(C(=O)NC(CC(C)C)C(N)=O)ccc21` (stereo not shown) [Example 171, 1-(1-Ethyl-propyl)-2-thiophen-2-ylmethyl-1H-benzoimidazole-5-carboxylic acid (1-carbamoyl-3-methyl-butyl)-amide], the EC50 was determined as 748 nM.

On to `C[C@@H]1CCCC[C@H]1n1c(Cc2cccs2)nc2cc(C(=O)NC(CC(=O)O)C3CCCCC3)ccc21` (single isomer, unassigned) [Example 462], for which the EC50 is 137 nM.

For the compound `CCC(CC)n1c(Cc2cccs2)nc2cc(C(=O)N[C@H](C(=O)O)C(C)C)ccc21` [Example 122, (S)-2-{[1-(1-Ethyl-propyl)-2-thiophen-2-ylmethyl-1H-benzoimidazole-5-carbonyl]-amino}-3-methyl-butyric acid], the EC50 amounted to 4380 nM.

For the compound `CCC(CC)n1c(Cc2cccs2)nc2cc(C(=O)N[C@@H](CC3CCCCC3)[C@H](O)CC(=O)O)ccc21` [Example 73, (3R,4S)-5-Cyclohexyl-4-{[1-(1-ethyl-propyl)-2-thiophen-2-ylmethyl-1H-benzoimidazole-5-carbonyl]-amino}-3-hydroxy-pentanoic acid], the 50% effective concentration (EC50) amounted to 65 nM.

On to `CCC(CC)n1c(Cc2cccs2)nc2cc(C(=O)N[C@@H](CC(C)C)C(=O)N(C)CC3CCCCO3)ccc21` (stereo partly drawn) [Example 395, 1-(1-Ethyl-propyl)-2-thiophen-2-ylmethyl-1H-benzoimidazole-5-carboxylic acid {(S)-3-methyl-1-[methyl-(tetrahydro-pyran-2-ylmethyl)-carbamoyl]-butyl}-amide], for which the EC50 stood at 1760 nM.

On to `CCC(CC)n1c(Cc2cccs2)nc2cc(C(=O)NC3(C(=O)O)CCCCCC3)ccc21` [Example 1, 1-{[1-(1-Ethyl-propyl)-2-thiophen-2-ylmethyl-1H-benzoimidazole-5-carbonyl]-amino}-cycloheptanecarboxylic acid], for which the EC50 came out at 359 nM.

By EC50 is commonly meant the midpoint of the concentration-response curve.
